Source: US20230278972A1, “SUBSTITUTED HALOALKYL SULFONANILIDE HERBICIDES” (FMC Corporation, priority 2020, published 2023)

Columns and labels:
Type in all cases: in vivo
[1] = system: barnyardgrass (Echinochloa crus-galli); experiment: Test A preemergence, barnyardgrass; details: Preemergence, 0 to 100 scale (0 no effect, 100 complete control)
How it was run: (§1)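 Preemergence: seeded pots of loam plus sand received a directed soil spray. Postemergence: seedlings at one to two leaves, 2 to 10 cm high, were oversprayed. Each compound was formulated in a non-phytotoxic solvent mix that included a surfactant.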

[2] = system: kochia (Bassia scoparia); experiment: Test A preemergence, kochia; details: Preemergence, 0 to 100 scale (0 no effect, 100 complete control)
How it was run: as §1

[3] = system: ragweed (common ragweed, Ambrosia artemisiifolia); experiment: Test A preemergence, ragweed; details: Preemergence, 0 to 100 scale (0 no effect, 100 complete control)
How it was run: as §1

[4] = system: Ryegrass, Italian (Italian ryegrass, Lolium multiflorum); experiment: Test A preemergence, Ryegrass, Italian; details: Preemergence, 0 to 100 scale (0 no effect, 100 complete control)
How it was run: as §1

[5] = system: Foxtail, Giant (giant foxtail, Setaria faberi); experiment: Test A preemergence, Foxtail, Giant; details: Preemergence, 0 to 100 scale (0 no effect, 100 complete control)
How it was run: as §1

[6] = system: pigweed (Amaranthus retroflexus); experiment: Test A preemergence, pigweed; details: 0 to 100 scale (0 no effect, 100 complete control)
How it was run: (§2)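 Compounds in non-phytotoxic solvent with surfactant. Soil: loam/sand. Preemergence via directed soil spray after seeding; postemergence on seedlings 2–10 cm, one- to two-leaf.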

[7] = system: barnyardgrass (Echinochloa crus-galli); experiment: Test A postemergence, barnyardgrass; details: Postemergence, 0 to 100 scale (0 no effect, 100 complete control); for Plant response rating, Barnyardgrass: 125 g ai/ha; for Barnyardgrass plant response rating: 500 g ai/ha, visual injury vs untreated controls after approx. 10 days
How it was run: as §2

[8] = system: kochia (Bassia scoparia); experiment: Test A postemergence, kochia; details: Postemergence, 0 to 100 scale (0 no effect, 100 complete control); for Plant response rating, Kochia: 125 g ai/ha; for Kochia plant response rating: 500 g ai/ha, visual injury vs untreated controls after approx. 10 days
How it was run: as §1

[9] = system: ragweed (common ragweed, Ambrosia artemisiifolia); experiment: Test A postemergence, ragweed; details: Postemergence, 0 to 100 scale (0 no effect, 100 complete control); for Plant response rating, Ragweed: 125 g ai/ha; for Ragweed plant response rating: 500 g ai/ha, visual injury vs untreated controls after approx. 10 days
How it was run: as §1

[10] = system: Ryegrass, Italian (Italian ryegrass, Lolium multiflorum); experiment: Test A postemergence, Ryegrass, Italian; details: Postemergence, 0 to 100 scale (0 no effect, 100 complete control); for Plant response rating, Ryegrass, Italian: 125 g ai/ha; for Ryegrass, Italian plant response rating: 500 g ai/ha, visual injury vs untreated controls after approx. 10 days
How it was run: as §1

[11] = system: Foxtail, Giant (giant foxtail, Setaria faberi); experiment: Test A postemergence, Foxtail, Giant; details: Postemergence, 0 to 100 scale (0 no effect, 100 complete control); for Plant response rating, Foxtail, Giant: 125 g ai/ha; for Foxtail, Giant plant response rating: 500 g ai/ha, visual injury vs untreated controls after approx. 10 days
How it was run: as §1

[12] = system: pigweed (Amaranthus retroflexus); experiment: Test A postemergence, pigweed; details: Postemergence, 0 to 100 scale (0 no effect, 100 complete control); for Plant response rating, Pigweed: 125 g ai/ha; for Pigweed plant response rating: 500 g ai/ha, visual injury vs untreated controls after approx. 10 days
How it was run: as §1

[13] = system: wheat (Triticum aestivum); experiment: Test A postemergence, wheat; details: Postemergence, 0 to 100 scale (0 no effect, 100 complete control); for Plant response rating, Wheat: 125 g ai/ha; for Wheat plant response rating: 500 g ai/ha, visual injury vs untreated controls after approx. 10 days
How it was run: as §2

[14] = system: corn (Zea mays); experiment: Test A postemergence, corn; details: Postemergence, 0 to 100 scale (0 no effect, 100 complete control); for Plant response rating, Corn: 125 g ai/ha; for Corn plant response rating: 500 g ai/ha, visual injury vs untreated controls after approx. 10 days
How it was run: as §1

[15] = system: blackgrass (Alopecurus myosuroides); experiment: Test A postemergence, blackgrass; details: Postemergence, 0 to 100 scale (0 no effect, 100 complete control); for Plant response rating, Blackgrass: 125 g ai/ha; for Blackgrass plant response rating: 500 g ai/ha, visual injury vs untreated controls after approx. 10 days
How it was run: as §1

[16] = system: galium (catchweed bedstraw, Galium aparine); experiment: Test A postemergence, galium; details: Postemergence, 0 to 100 scale (0 no effect, 100 complete control); for Plant response rating, Galium: 125 g ai/ha; for Galium plant response rating: 500 g ai/ha, visual injury vs untreated controls after approx. 10 days
How it was run: as §2

[17] = 125 g ai/ha, visual injury, approx. 10 days

| SMILES | Plant response rating, Barnyardgrass [1, 17] | Plant response rating, Barnyardgrass ([1]; 500 g ai/ha) | Plant response rating, Kochia [2, 17] | Plant response rating, Kochia ([2]; 500 g ai/ha) | Plant response rating, Ragweed [3, 17] | Plant response rating, Ragweed ([3]; 500 g ai/ha) | Plant response rating, Ryegrass, Italian [4, 17] | Plant response rating, Ryegrass, Italian ([4]; 500 g ai/ha) | Plant response rating, Foxtail, Giant [5, 17] | Plant response rating, Foxtail, Giant ([5]; 500 g ai/ha) | Plant response rating, Pigweed [6, 17] | Plant response rating, Pigweed ([6]; 500 g ai/ha) | Plant response rating, Barnyardgrass [7] | Barnyardgrass plant response rating [7] | Plant response rating, Kochia [8] | Kochia plant response rating [8] | Plant response rating, Ragweed [9] | Ragweed plant response rating [9] | Plant response rating, Ryegrass, Italian [10] | Ryegrass, Italian plant response rating [10] | also measured |
| --- | --- | --- | --- | --- | --- | --- | --- | --- | --- | --- | --- | --- | --- | --- | --- | --- | --- | --- | --- | --- | --- |
| Cc1cc(Cl)c(N(S(=O)(=O)C(F)(F)F)S(=O)(=O)C(F)(F)F)cc1C1=NOC2(CCCCC2)C1 [Compound 217] | 90 | 100 | 70 | 90 | 60 | 90 | 80 | 100 | 90 | 100 | 70 | 100 | 0 | 30 | 50 | 70 | 60 | 70 | 0 | 0 | Plant response rating, Foxtail, Giant [11]: 0; Foxtail, Giant plant response rating [11]: 0; Plant response rating, Pigweed [12]: 40; Pigweed plant response rating [12]: 80; Plant response rating, Wheat [13]: 0; Wheat plant response rating [13]: 30; Plant response rating, Corn [14]: 0; Corn plant response rating [14]: 20; Plant response rating, Blackgrass [15]: 0; Blackgrass plant response rating [15]: 20; Plant response rating, Galium [16]: 80; Galium plant response rating [16]: 90 |
| CC(=O)OCN(c1cc(C2=NOC3(CCCC3)C2)c(C)cc1C)S(=O)(=O)C(F)(F)F [Compound 218] | 100 | 100 | 30 | 60 | 20 | 90 | 100 | 100 | 100 | 100 | 80 | 90 | 80 | 90 | 60 | 80 | 40 | 80 | 30 | 80 | Plant response rating, Foxtail, Giant [11]: 50; Foxtail, Giant plant response rating [11]: 90; Plant response rating, Pigweed [12]: 50; Pigweed plant response rating [12]: 80; Plant response rating, Wheat [13]: 10; Wheat plant response rating [13]: 70; Plant response rating, Corn [14]: 10; Corn plant response rating [14]: 70; Plant response rating, Blackgrass [15]: 10; Blackgrass plant response rating [15]: 40; Plant response rating, Galium [16]: 60; Galium plant response rating [16]: 80 |
| CSC(=O)N(c1cc(C2=NOC3(CCCC3)C2)c(C)cc1C)S(=O)(=O)C(F)(F)F [Compound 219] | 0 | 100 | 20 | 40 | 0 | 0 | 50 | 60 | 50 | 90 | 40 | 60 | 0 | 70 | 30 | 60 | 20 | 50 | 20 | 50 | Plant response rating, Foxtail, Giant [11]: 0; Foxtail, Giant plant response rating [11]: 20; Plant response rating, Pigweed [12]: 40; Pigweed plant response rating [12]: 70; Plant response rating, Wheat [13]: 0; Wheat plant response rating [13]: 0; Plant response rating, Corn [14]: 0; Corn plant response rating [14]: 0; Plant response rating, Blackgrass [15]: 0; Blackgrass plant response rating [15]: 0; Plant response rating, Galium [16]: 50; Galium plant response rating [16]: 70 |
| CC(=O)N(c1cc(C2=NOC3(CCCC3)C2)c(C)cc1C)S(=O)(=O)C(F)(F)F [Compound 220] | 100 | 100 | 20 | 70 | 30 | 60 | 100 | 100 | 100 | 100 | 70 | 100 | 20 | 70 | 20 | 60 | 0 | 40 | 0 | 20 | Plant response rating, Foxtail, Giant [11]: 0; Foxtail, Giant plant response rating [11]: 50; Plant response rating, Pigweed [12]: 0; Pigweed plant response rating [12]: 70; Plant response rating, Wheat [13]: 20; Wheat plant response rating [13]: 60; Plant response rating, Corn [14]: 0; Corn plant response rating [14]: 30; Plant response rating, Blackgrass [15]: 0; Blackgrass plant response rating [15]: 30; Plant response rating, Galium [16]: 60; Galium plant response rating [16]: 80 |
